Earlier results in US8859603B2, “Method for solubilizing metronidazole” (Galderma S.A., priority 2004, dated 2014).

Details: no solubilizer

- intrinsic solubility of metronidazole in an aqueous phase: ~0.9 % (m/m)
Structure (SMILES): Cc1ncc([N+](=O)[O-])n1CCO [metronidazole, 1-(2-hydroxyethyl)-2-methyl-5-nitroimidazole]
